# According to patent publication US20100204143A1, “GAMMA 1 MSH ALONE OR IN COMBINATION WITH PENTAGASTRIN AS A THERAPEUTIC AGENT” (priority 2007, published 2010):
# No end group written: not given here.
# Legend:
# IL-2 spleen cells = assay: Th1/Th2 cytokine profiling assay: IL-2; type: cell-based, Balb/c mice; conditions: 10 micrograms per ml; Ovalbumin restimulation; 72 hours
# Excerpt: (§1) The Balb/c mice (originated in 1923, it is a popular strain and is used in many different research disciplines. Also classified as an inbred from the production of 20 or more successive brother-sister matings, the Balb/c mouse is albino and small in size) were immunized on Days 1, 15, and 29 with Ovalbumin (Ovalbumin is the main protein found in egg white, commonly used to stimulate an immunological reaction in test animals) in PBS (5 micrograms/injection). On day 50, spleens of the mice were harvested (3 weeks after last boost with Ovalbumin). […] Thereafter, additional Ovalbumin was added to the cells at 10 micrograms/ml for in vitro restimulation of the cells. 72 hours later, cell supernatants were harvested and assayed using the Becton Dickinson Mouse Th1/Th2 Cytokine CBA Kit. This kit can be used to measure Interleukin-2 (IL-2), Interleukin-4 (IL-4), Interleukin-5 (IL-5), Interferon-γ (IFN-γ), and Tumor Necrosis Factor-α (TNF-α) protein levels in a single sample.
# [1] = test system: hepatitis B virus (HBV) ayw strain; assay: HBV experimental assay system (HepG2-2.2.15, TaqMan PCR of HBV DNA); type: cell-based; conditions: 10 micrograms per ml; six days; as compared to the virus control infection
# IL-5 spleen cells = assay: Th1/Th2 cytokine profiling assay: IL-5; type: cell-based, Balb/c mice; conditions: 10 micrograms per ml; Ovalbumin restimulation; 72 hours
# Excerpt: The Balb/c mice (originated in 1923, it is a popular strain and is used in many different research disciplines. Also classified as an inbred from the production of 20 or more successive brother-sister matings, the Balb/c mouse is albino and small in size) were immunized on Days 1, 15, and 29 with Ovalbumin (Ovalbumin is the main protein found in egg white, commonly used to stimulate an immunological reaction in test animals) in PBS (5 micrograms/injection). On day 50, spleens of the mice were harvested (3 weeks after last boost with Ovalbumin). […] Thereafter, additional Ovalbumin was added to the cells at 10 micrograms/ml for in vitro restimulation of the cells. 72 hours later, cell supernatants were harvested and assayed using the Becton Dickinson Mouse Th1/Th2 Cytokine CBA Kit.
# [2] = test system: Primary Human endothelial cells (HUVEC); assay: Endothelial cell migration assay; type: cell-based; conditions: 10 micrograms per ml, 22 hours
# TNF-a spleen cells = assay: Th1/Th2 cytokine profiling assay: TNF-a; type: cell-based, Balb/c mice; conditions: 10 micrograms per ml; Ovalbumin restimulation; 72 hours
# Excerpt: as §1
# IL-4 spleen cells = assay: Th1/Th2 cytokine profiling assay: IL-4; type: cell-based, Balb/c mice; conditions: 10 micrograms per ml; Ovalbumin restimulation; 72 hours
# Excerpt: as §1
# [3] = test system: cyclic AMP generation in human peripheral blood mononuclear cells (PBMC); assay: cAMP induction assay; type: cell-based; conditions: single peptides, 10 min at 37° C.
# Procedure: The cAMP kit was used as an immunoassay for the quantitative determination of cyclic AMP generation in human peripheral blood mononuclear cells (PBMC). PBMC were placed in 96-well microtitier plates (50 microliters of cells at 4×10^6/ml) and 50 microliters of medium alone (background control), forskolin (cAMP positive control; 50 micrograms per ml), or test peptides were added. Plates were mixed and incubated for 10 min at 37° C. and the cells were lysed by the addition of 50 microliters of 3% perchloric acid. NaOH was added to neutralize the samples. Plates were centrifuged for 15 min at 2500 rpm and the supernatants removed. The supernatants (diluted 2-fold in assay buffer) were then assayed for the levels of cAMP by ELISA.
# IFNγ spleen cells = assay: Th1/Th2 cytokine profiling assay: IFNγ; type: cell-based, Balb/c mice; conditions: 10 micrograms per ml; Ovalbumin restimulation; 72 hours
# Excerpt: as §1
substance,measurement,setting,value
Tyr-Val-Met-Gly-His-Phe-Arg-Trp-Asp-Arg-Phe-NH2 (YVMGHFRWDRF-NH2) [peptide 1],IL-2 spleen cells (% of control),IL-2 spleen cells,101.6 % of control
same,inhibition of HBV replication,[1],17.4%
same,IL-5 spleen cells; TH2 response (% of control),IL-5 spleen cells,67.0 % of control
same,induction of the migration of human endothelial cells,[2],12%
same,TNF-a spleen cells; TH1 response (% of control),TNF-a spleen cells,85.7 % of control
same,IL-4 spleen cells; TH2 response (% of control),IL-4 spleen cells,0.0 % of control
same,induction of cAMP formation in human peripheral blood cells,[3],45.4%
same,IFNγ spleen cells; TH1 response (% of control),IFNγ spleen cells,97.3 % of control
